According to US20170165236A1, “SELECTIVE SPHINGOSINE 1 PHOSPHATE RECEPTOR MODULATORS AND COMBINATION THERAPY THEREWITH” (Celgene International II Sàrl, priority 2013, published 2017):
pEC50: −log10 of the molar value.

Tests used:
S1P1/EDG1 = S1P1/EDG1 (Homo sapiens, UniProt P21453); assay: S1P1 CRE-bla CHOK1 reporter assay, inhibition of Forskolin induced cAMP; assay type: cell-based; conditions: CRE-bla CHOK1 cells, 2 μM Forskolin; read-out: S1P1 ACTIVITY (agonist activity)
Procedure: Generation of S1P1-Mediated Inhibition of cAMP Reporter Assay
S1P1/pcDNA3.1 was transfected into the CRE-bla CHO K1 (Invitrogen) cell line, and stable single cell clones were selected using standard techniques.
S1P1 CRE-Bla CHOK1 Reporter Assay—Characterization of S1P1 Agonists
Cells were seeded into 384-well black wall/clear bottom plates at 10^4 cells/well/19.5 μl assay media (DMEM-phenol free, 0.5% charcoal/dextran stripped serum, 2 mM glutamine, 0.1 mM NEAA, 1 mM Na-Pyruvate, 25 mM Hepes) and incubated for 18 hrs at 37° C. in 5% CO2. Dose response curves (10-point) were generated in 10 mM Hepes, 0.1% Pluronic F127, in the presence of Forskolin. Cells were treated with 0.5 μl compound in the presence of 2 μM Forskolin for 4 hrs at 37° C. The FRET-based β-lactamase fluorescent substrate (LiveBLAzer™-FRET B/G Loading Kit CC4-AM; Invitrogen) was prepared according to manufacturer's directions, and incubated with cells for 2 hrs at room temperature. […] Data was analyzed by non-linear regression to determine the EC50 for inhibition of Forskolin induced cAMP.

[1] = tested on: influenza A virus (A/WSN/33); assay: Influenza A H1N1 model in mice; conditions: mouse, in vivo
S1P1 R120A/E121A = S1P1 R120A/E121A (Homo sapiens, UniProt P21453, E121A/R120A); assay: Phosphorylated-ERK1/2 In Cell Western, S1P1 mutant R120A/E121A; assay type: cell-based
S1P1 R120A/E121A, sequence (P21453 whole entry R120A/E121A): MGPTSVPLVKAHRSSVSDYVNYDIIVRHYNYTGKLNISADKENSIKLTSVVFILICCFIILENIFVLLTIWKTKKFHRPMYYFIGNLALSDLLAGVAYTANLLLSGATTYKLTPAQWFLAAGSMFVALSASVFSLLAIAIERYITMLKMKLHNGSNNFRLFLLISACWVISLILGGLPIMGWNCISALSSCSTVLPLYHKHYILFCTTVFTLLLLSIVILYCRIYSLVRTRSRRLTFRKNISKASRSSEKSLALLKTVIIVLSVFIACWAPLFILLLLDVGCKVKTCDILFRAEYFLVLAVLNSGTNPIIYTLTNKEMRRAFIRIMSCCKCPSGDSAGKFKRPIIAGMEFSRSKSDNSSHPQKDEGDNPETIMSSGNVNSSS
Procedure: (§1) Quick-change mutagenesis with PfuTurbo DNA polymerase (Stratagene) was conducted using S1P1/pcDNA3.1 (Missouri S&T cDNA Resource Centre) as the template. Primers were as follows: […]
(§2) PCR conditions were 15 cycles with the following parameters: 95° C. 30 sec, 58° C. 30 sec, 68° C. for 60 sec. All constructs were sequence verified.
(§3) CHOK1 cells were transfected using Fugene (Roche). Stably expressing mixed pools were selected with 2 mg/ml G418. Expression of functional S1P1/EDG1 receptor was confirmed by cell surface FACS with a S1P1 antibody (R&D Systems, clone 218713). Stable pools were seeded at 40,000 cells/well in a clear bottom 96-well tray, and incubated at 37° C. in 5% CO2 for 18 hrs. Cells were serum-starved in FreeStyle 293 medium (Invitrogen) for 4-6 h, then incubated for 5 min with a dose response of compound, in duplicate. Cells were fixed with 4% paraformaldehyde for 20 min, permeabilized with 0.1% Triton X-100 in PBS (4×5 min washes) and blocked for 1 h in Odyssey Blocking Buffer (LI-COR). All incubations were at room temperature. Cells were incubated for 18 h at 4° C. in Rabbit anti-Phospho-ERK1/2 (Cell Signaling #4377) and Mouse anti-ERK1/2 (Cell Signaling #9107) both diluted 1:800 in Odyssey Blocking Buffer. […] Data was analyzed by non-linear regression using GraphPad Prism to determine the EC50 of binding.

S1P1 W269L = S1P1 W269L (Homo sapiens, UniProt P21453, W269L); assay: S1P1 mutagenesis analysis, W269L mutant; assay type: cell-based
S1P1 W269L, sequence (P21453 whole entry W269L): as the sequence (P21453 whole entry R120A/E121A) above, with A120R, A121E, W269L counted along it
Procedure: as §3, with “Buffer. Plates were washed with 0.1% Tween-20 in PBS and then incubated with Odyssey Blocking Buffer containing IRDye 680-labeled goat anti-rabbit antibody (#926-32221; diluted 1/500) and IRDye 800CW-labeled goat anti-mouse antibody (#926-32210; diluted 1/1000). Plates were washed with 0.1% Tween-20 in PBS, all liquid was removed from the wells and the plates were scanned using a LICOR Odyssey scanner.” for “Buffer.”, “binding. […]” for “binding.”

S1P1 N101A = S1P1 N101A (Homo sapiens, UniProt P21453, N101A); assay: Phosphorylated-ERK1/2 In Cell Western, S1P1 mutant N101A; assay type: cell-based
S1P1 N101A, sequence (P21453 whole entry N101A): as the sequence (P21453 whole entry R120A/E121A) above, with N101A, A120R, A121E counted along it
Procedure: as §1, §2, §3

S1P1 = S1P1 (Homo sapiens, UniProt P21453); assay: Phosphorylated-ERK1/2 In Cell Western, wild type S1P1 in CHOK1; assay type: cell-based
S1P1, sequence (P21453 whole entry): as the sequence (P21453 whole entry R120A/E121A) above, with A120R, A121E counted along it
Procedure: as §3, with “Buffer. Plates were washed with 0.1% Tween-20 in PBS and then incubated with Odyssey Blocking Buffer containing IRDye 680-labeled goat anti-rabbit antibody (#926-32221; diluted 1/500) and IRDye 800CW-labeled goat anti-mouse antibody (#926-32210; diluted 1/1000). Plates were washed with 0.1% Tween-20 in PBS, all liquid was removed from the wells and the plates were scanned using a LICOR Odyssey scanner.” for “Buffer.”

[2] = tested on: CD4 or CD8 positive T cells; conditions: racemic compound 253; data stated as reported by Gonzalez-Cabrera et al. 2008; cited from earlier work

S1P1/EDG1, sequence (P21453 whole entry): as the sequence (P21453 whole entry R120A/E121A) above, with A120R, A121E counted along it

Row | Compound | pEC50 (S1P1/EDG1) | also measured
1 | CC(C)Oc1ccc(-c2nc(-c3cccc4c3CC[C@H]4N(C)CCO)no2)cc1C#N [Compound 111] | 8.30 to 9.30 | –
2 | CC(C)Oc1ccc(-c2nc(-c3cccc4c3CC[C@H]4NS(=O)(=O)CCN(C)C)no2)cc1C#N [Compound 77] | 9.30 to 10.30 | –
3 | CC(C)Oc1ccc(-c2nc(-c3cccc4c3CC[C@H]4NCCO)no2)cc1C#N [Compound 85, (R)-5-(3-(1-(2-hydroxyethylamino)-2,3-dihydro-1H-inden-4-yl)-1,2,4-oxadiazol-5-yl)-2-isopropoxybenzonitrile] | – | suppression of cellular infiltrate into the lungs [1]: 40%
4 | CC(C)Oc1ccc(-c2nc(-c3cccc4c3CC[C@@H]4NS(=O)(=O)CCN3CCNCC3)no2)cc1C#N [Compound 179] | 8.30 to 9.30 | –
5 | CC(C)Oc1ccc(-c2nc(-c3cccc4c3CCC4NCCC(=O)O)no2)cc1C#N (racemic) [Compound 38] | – | effect of S1P1 mutation on binding (S1P1 R120A/E121A): diminishes binding; effect of S1P1 mutation on binding (S1P1 W269L): abolishes binding; effect of S1P1 mutation on binding (S1P1 N101A): no effect on binding; S1P1 agonism, phosphorylation of ERK1/2 (S1P1): induce phosphorylation of ERK1/2
6 | CC(C)Oc1ccc(-c2nc(-c3cccc4c3CC[C@H]4NC(C)C(=O)N(C)C)no2)cc1C#N (stereo partly shown) [Compound 58] | 8.30 to 9.30 | –
7 | CC(C)Oc1ccc(-c2nc(-c3cccc4c3CC[C@H]4NCC(=O)N3CCOCC3)no2)cc1C#N [Compound 59] | 9.30 to 10.30 | –
8 | CC(C)Oc1ccc(-c2nc(-c3cccc4c3CC[C@@H]4NC(=O)N(C)C)no2)cc1C#N [Compound 120] | 9.30 to 10.30 | –
9 | CC(C)Oc1ccc(-c2nc(-c3cccc4c3CC[C@H]4NC(=O)c3ccc(Br)cc3)no2)cc1C#N [Compound 122] | < 8.30 | –
10 | CCOc1ccc(-c2nc(-c3cccc4c3CC[C@H]4O)no2)cc1[N+](=O)[O-] [Compound 11] | 8.30 to 9.30 | –
11 | CC(C)Oc1ccc(-c2nc(-c3cccc4c3CC[C@@H]4NS(=O)(=O)CCNCCO)no2)cc1C#N [Compound 180] | 9.30 to 10.30 | –
12 | COCCN[C@@H]1CCc2c(-c3noc(-c4ccc(OC(C)C)c(C#N)c4)n3)cccc21 [Compound 88] | 8.30 to 9.30 | –
13 | CC(C)Oc1ccc(-c2nc(-c3cccc4c3CC[C@@H]4N(C)CC(=O)N(C)C)no2)cc1C#N [Compound 115] | 8.30 to 9.30 | –
14 | CC(C)Oc1ccc(-c2nc(-c3cccc4c3CC[C@@H]4N(CCO)S(=O)(=O)c3ccccc3)no2)cc1C#N [Compound 117] | < 8.30 | –
15 | CC(C)Oc1ccc(-c2nc(-c3cccc4c3CC[C@H]4NS(=O)(=O)CCN3CCC3)no2)cc1C#N [Compound 168] | 9.30 to 10.30 | –
16 | CCOc1ccc(-c2nc(-c3cccc4c3CC[C@@H]4O)no2)cc1[N+](=O)[O-] [Compound 12] | 8.30 to 9.30 | –
17 | CC(C)Oc1ccc(-c2nc(-c3cccc4c3CC[C@H]4NS(C)(=O)=O)no2)cc1C#N [Compound 70] | 9.30 to 10.30 | –
18 | CNCCS(=O)(=O)N[C@@H]1CCc2c(-c3noc(-c4ccc(OC(C)C)c(C#N)c4)n3)cccc21 [Compound 74] | 9.30 to 10.30 | –
19 | CC(C)Oc1ccc(-c2nc(-c3cccc4c3CC[C@@H]4N)no2)cc1C#N [Compound 50, (S)-5-(3-(1-amino-2,3-dihydro-1H-inden-4-yl)-1,2,4-oxadiazol-5-yl)-2-isopropoxy-benzonitrile] | – | effect of S1P1 mutation on binding (S1P1 R120A/E121A): no influence on the binding; effect of S1P1 mutation on binding (S1P1 W269L): abolishes binding; effect of S1P1 mutation on binding (S1P1 N101A): reduces the binding; S1P1 agonism, phosphorylation of ERK1/2 (S1P1): induce phosphorylation of ERK1/2
20 | CC(C)Oc1ccc(-c2nc(-c3cccc4c3CCC4NC[C@H](O)CO)no2)cc1C#N (stereo partly shown) [Compound 41] | 9.30 to 10.30 | –
21 | CCOc1ccc(-c2nc(-c3cccc4c3CCC4NCCO)no2)cc1OCC (racemic) [Compound 253, (+/−)-2-((4-(5-(3,4,DIETHOXYPHENYL)-1,2,4-OXADIAZOL-3-YL)-2,3-DIHYDRO-1H-INDEN-1-YL) AMINO)ETHANOL] | – | Mouse Lymphopenia (AUEC) [2]: 116
22 | CC(C)Oc1ccc(-c2nc(-c3cccc4c3CC[C@@H]4NS(=O)(=O)CCN3CC(O)C3)no2)cc1C#N [Compound 181] | 9.30 to 10.30 | –
23 | CC(C)Oc1ccc(-c2nc(-c3cccc4c3CCC4NC[C@H](C)O)no2)cc1C#N (stereo partly shown) [Compound 43] | 9.30 to 10.30 | –
24 | CC(C)Oc1ccc(-c2nc(-c3cccc4c3CCC4NC[C@@H](C)O)no2)cc1C#N (stereo partly shown) [Compound 42] | 8.30 to 9.30 | –
25 | CC(C)Oc1ccc(-c2nc(-c3cccc4c3CC[C@@H]4NS(=O)(=O)CCN3CCC(O)CC3)no2)cc1C#N [Compound 178] | 8.30 to 9.30 | –
